# Source: patent publication US7211577B2, “Water-soluble phenylpyridazine derivative and medicine containing the same” (Kowa Co., Ltd., priority 2003, dated 2007)
# Assay: Water solubility test
# Format: physicochemical
# Settings: 100 mL purified water added
# Method: Experiment 2 (Water Solubility Test) Testing Method
# Each sample compound was weighed in the amount shown in Table 3, to which purified water was added in 0.05 mL aliquots. The solubility (%) of the compound was determined based on the amount of water required for its dissolution.
row,SMILES,Dissolution in the added water (in words)
1,"COc1ccc(-c2cc(C(=O)O)c(=O)n(C/C=C/c3ccc(Cl)cc3)n2)cc1 [compound 4, reference compound]",(insoluble)
2,"CNC(=O)c1cc(-c2ccc(OC)cc2)nn(CC(C)C)c1=O [compound 2, reference compound]",(insoluble)
3,"CCOC(=O)Nc1cc(-c2ccc(OC)cc2)nn(C/C=C/c2ccc(Cl)cc2)c1=O [compound 1, reference compound]",(insoluble)

# Same assay, conditions: purified water, from amount of water required for dissolution
row,SMILES,Solubility (%)
1,"COc1ccc(-c2cc(C(=O)O)c(=O)n(C/C=C/c3ccc(Cl)cc3)n2)cc1 [compound 4, reference compound]",<0.001
2,"COc1ccc(-c2cc(CCCN3CCNCC3)c(=O)n(CC3CC3)n2)cc1F.Cl.Cl [Example 214, 2-cyclopropylmethyl-6-(3-fluoro-4-methoxyphenyl)-4-[3-(1-piperazinyl)propyl]-2H-pyridazin-3-one dihydrochloride]",10
3,"CNC(=O)c1cc(-c2ccc(OC)cc2)nn(CC(C)C)c1=O [compound 2, reference compound]",<0.001
4,"CCOC(=O)Nc1cc(-c2ccc(OC)cc2)nn(C/C=C/c2ccc(Cl)cc2)c1=O [compound 1, reference compound]",<0.001
5,"COc1ccc(-c2cc(CN3CCN(Cc4ccccc4)CC3)c(=O)n(CC3CC3)n2)cc1F.Cl.Cl [Example 18, 4-(4-benzyl-1-piperazinyl)methyl-2-cyclopropylmethyl-6-(3-fluoro-4-methoxyphenyl)-2H-pyridazin-3-one dihydrochloride]",1
6,"Cc1cc(-c2cc(CN(C)C)c(=O)n(CC(C)C)n2)ccc1F.Cl [Example 89, 4-dimethylaminomethyl-6-(4-fluoro-3-methylphenyl)-2-isobutyl-2H-pyridazin-3-one hydrochloride]",>20
7,"COc1ccc(-c2cc(CCCN)c(=O)n(CC3CC3)n2)cc1F.Cl [Example 217, 4-(3-aminopropyl)-2-cyclopropylmethyl-6-(3-fluoro-4-methoxyphenyl)-2H-pyridazin-3-one hydrochloride]",10
8,"COc1ccc(-c2cc(CN)c(=O)n(CC3CCCC3)n2)cc1F.Cl [Example 188, 4-aminomethyl-2-cyclopentylmethyl-6-(3-fluoro-4-methoxyphenyl)-2H-pyridazin-3-one hydrochloride]",0.08
9,"Cc1ccc(-c2cc(CN(C)C)c(=O)n(CC(C)C)n2)cc1.Cl [Example 45, 4-dimethylaminomethyl-2-isobutyl-6-(4-methylphenyl)-2H-pyridazin-3-one hydrochloride]",4
10,"CCN(CC)Cc1cc(-c2ccc(C)cc2)nn(CC(C)C)c1=O.Cl [Example 47, 4-diethylaminomethyl-2-isobutyl-6-(4-methylphenyl)-2H-pyridazin-3-one hydrochloride]",>20
11,"COc1ccc(-c2cc(CN3CCNCC3)c(=O)n(CC3CC3)n2)cc1F.Cl.Cl [Example 21, 2-cyclopropylmethyl-6-(3-fluoro-4-methoxyphenyl)-4-(1-piperazinyl)methyl-2H-pyridazin-3-one dihydrochloride]",>20
12,"COc1ccc(-c2cc(CN)c(=O)n(Cc3ccc(Cl)cc3)n2)cc1F.Cl [Example 206, 4-aminomethyl-2-(4-chlorobenzyl)-6-(3-fluoro-4-methoxyphenyl)-2H-pyridazin-3-one hydrochloride]",0.06
13,"COc1ccc(-c2cc(CN)c(=O)n(Cc3ccc(F)cc3)n2)cc1F.Cl [Example 195, 4-aminomethyl-2-(4-fluorobenzyl)-6-(3-fluoro-4-methoxyphenyl)-2H-pyridazin-3-one hydrochloride]",0.2

# Assay: not given
# Settings: not given
row,SMILES,melting point
1,"CNCc1cc(-c2ccc(OC)c(F)c2)nn(CC2CC2)c1=O [Example 9, 2-cyclopropylmethyl-6-(3-fluoro-4-methoxyphenyl)-4-methylaminomethyl-2H-pyridazin-3-one]",169.1 to 170.7 °C
2,Cc1c(-c2ccccc2)nn(CC(C)C)c(=O)c1N1CCNCC1.Cl.Cl,154.3 to 159.5 °C
3,CC(C)Cn1nc(-c2ccc(C(F)(F)F)cc2)cc(CN(C)C)c1=O.Cl,242.2 to 242.3 °C
4,Cc1cc(-c2cc(CN3CCN(C)CC3)c(=O)n(Cc3ccc(Cl)cc3)n2)ccc1F.Cl.Cl,246.4 to 249.7 °C (dec.)
5,CN(C)Cc1cc(-c2ccc(S(C)(=O)=O)cc2)nn(CC2CC2)c1=O.Cl,239.5 to 240.7 °C
6,"COc1ccc(-c2cc(CN3CCNCC3)c(=O)n(Cc3ccc(F)cc3)n2)cc1F [Example 192, 2-(4-fluorobenzyl)-6-(3-fluoro-4-methoxyphenyl)-4-(1-piperazinyl)methyl-2H-pyridazin-3-one]",142 to 143 °C
7,Cc1cc(-c2cc(CN)c(=O)n(Cc3ccccc3Cl)n2)ccc1F.Cl,201.9 to 206.4 °C
8,CC(C)Cn1nc(-c2ccc(S(C)(=O)=O)cc2)cc(CN(C)C)c1=O.Cl,221.4 to 223.3 °C
9,CC(C)Cn1nc(-c2ccc(F)c(F)c2)cc(CN2CCN(C)CC2)c1=O.Cl.Cl,242.5 to 243.4 °C
10,Cc1cc(-c2cc(CN3CCNCC3)c(=O)n(CC=Cc3ccc(Cl)cc3)n2)ccc1F.Cl.Cl,186.7 to 197 °C (dec.)
11,"COc1ccc(-c2cc(CN(C)C)c(=O)n(Cc3ccc(F)cc3)n2)cc1F [Example 190, 4-dimethylaminomethyl-2-(4-fluorobenzyl)-6-(3-fluoro-4-methoxyphenyl)-2H-pyridazin-3-one]",127 to 129 °C
12,CC(C)Cn1nc(-c2ccc(-c3ccccc3)cc2)cc(CN2CCNCC2)c1=O.Cl.Cl,226.8 to 228 °C
13,Cc1cc(-c2cc(CN(C)C)c(=O)n(Cc3ccccc3)n2)ccc1F.Cl,225.3 to 226 °C
14,CC(C)Cn1nc(-c2ccc(S(C)(=O)=O)cc2)cc(CN2CCN(C)CC2)c1=O.Cl.Cl,224.5 to 228 °C
15,COc1ccc(-c2cc(CN(C)C)c(=O)n(CC(C)C)n2)cc1F.Cl,212.4 to 212.8 °C
16,COc1ccc(-c2cc(CN3CCNCC3)c(=O)n(CC(C)C)n2)cc1F.Cl.Cl,163 to 177 °C (dec.)
17,CC(C)Cn1nc(-c2ccc(-c3ccccc3)cc2)cc(CN2CCN(C)CC2)c1=O.Cl.Cl,262.2 to 263.6 °C
18,Cc1ccc(-c2cc(CN3CCNCC3)c(=O)n(CC(C)C)n2)cc1F.Cl.Cl,186.2 to 195 °C (dec.)
19,"C#CCNCc1cc(-c2ccc(SC)cc2)nn(CC(C)C)c1=O.Cl [Example 163, 2-isobutyl-6-[4-(methylthio)phenyl]-4-propargylaminomethyl-2H-pyridazin-3-one hydrochloride]",197.5 to 198.4 °C
20,CC(C)Cn1nc(-c2ccc([S+](C)[O-])cc2)cc(CN2CCN(C)CC2)c1=O.Cl.Cl (centres unmarked),224.5 to 229.1 °C (dec.)
21,Cc1cc(-c2cc(CN3CCN(C)CC3)c(=O)n(CC=Cc3ccccc3)n2)ccc1F.Cl.Cl,236.1 to 237.1 °C
22,"Cc1cc(-c2cc(CN3CCN(C)CC3)c(=O)n(Cc3ccc(Cl)cc3)n2)ccc1F [Example 222, 2-(4-chlorobenzyl)-6-(4-fluoro-3-methylphenyl)-4-(4-methyl-1-piperazinyl)methyl-2H-pyridazin-3-one]",133.3 to 133.8 °C
23,CC(C)Cn1nc(-c2ccc(F)c(F)c2)cc(CN(C)C)c1=O.Cl,226.5 to 227.7 °C
24,Cc1cc(-c2cc(CN3CCNCC3)c(=O)n(CC=Cc3ccccc3)n2)ccc1F.Cl.Cl,171.1 to 187.1 °C (dec.)
25,"COc1ccc(-c2cc(CN)c(=O)n(Cc3ccc(F)cc3)n2)cc1F [Example 194, 4-aminomethyl-2-(4-fluorobenzyl)-6-(3-fluoro-4-methoxyphenyl)-2H-pyridazin-3-one]",145 to 149 °C
